We go through one compound from patent publication US20120225862A1, “HETEROARYL BENZAMIDES, COMPOSITIONS AND METHODS OF USE” (AUCKLAND UNIVSERVICES LIMITED, priority 2009, published 2012).

The target of one test is T1, Tie2 (Homo sapiens, UniProt Q02763).
T1 construct: purchased Millipore (KinaseProfiler service)
As to the kind of experiment: In vitro kinase activity (Millipore KinaseProfiler): Tie2. The test is classed as biochemical. The note with it: no head or unit printed. The procedure: (§1) All cells were grown in DMEM+10% FCS. ACHN and ACHN shVHL were a kind gift from George V. Thomas (UCLA). HIF overexpressing clones were described previously. Transfection of RNA oligos were performed with DnarmaFECT Reagent 1 (Dharmcon), according to manufacturer's directions. ON-TARGETplus SMART pools against HIF-1β/ARNT were purchased from Dharmacon. Glut1 was detected with anti-GLUT1 antibody from NeoMarkers/LabVision/Fisher. Pyruvate/lactate levels and hexokinase activity were both measured by fluorometric assay (BioVision and Sigma-Aldrich, respectively). ATP levels were measured by bioluminescence assay (ATP Determination Kit from Molecular Probes/Invitrogen). In vitro kinase activities were performed by Millipore KinaseProfiler. Affi-Gel 10 (BioRad) activated affinity media was coupled to analogs to generate immobilized affinity linkers.
(§2) We next wanted to investigate the differential glucose uptake between RCCs with and without VHL treated with compound 47 that subsequently lead to the selective death of VHL-deficient cells. We first examined the message levels of the two main glucose transporters, GLUT1 and GLUT2 by quantitative real-time PCR. GLUT1 is an inducible, high-affinity glucose transporter, while GLUT2 is the glucose transporter responsible for basal glucose uptake. […] Cells deficient in VHL had very low levels of GLUT2 that could barely be detected (FIG. 3J). […]

In another test the target is T2, IKKα (Homo sapiens, UniProt O15111).
T2 construct: purchased Millipore (KinaseProfiler service)
T2 sequence (O15111 whole entry, species assumed): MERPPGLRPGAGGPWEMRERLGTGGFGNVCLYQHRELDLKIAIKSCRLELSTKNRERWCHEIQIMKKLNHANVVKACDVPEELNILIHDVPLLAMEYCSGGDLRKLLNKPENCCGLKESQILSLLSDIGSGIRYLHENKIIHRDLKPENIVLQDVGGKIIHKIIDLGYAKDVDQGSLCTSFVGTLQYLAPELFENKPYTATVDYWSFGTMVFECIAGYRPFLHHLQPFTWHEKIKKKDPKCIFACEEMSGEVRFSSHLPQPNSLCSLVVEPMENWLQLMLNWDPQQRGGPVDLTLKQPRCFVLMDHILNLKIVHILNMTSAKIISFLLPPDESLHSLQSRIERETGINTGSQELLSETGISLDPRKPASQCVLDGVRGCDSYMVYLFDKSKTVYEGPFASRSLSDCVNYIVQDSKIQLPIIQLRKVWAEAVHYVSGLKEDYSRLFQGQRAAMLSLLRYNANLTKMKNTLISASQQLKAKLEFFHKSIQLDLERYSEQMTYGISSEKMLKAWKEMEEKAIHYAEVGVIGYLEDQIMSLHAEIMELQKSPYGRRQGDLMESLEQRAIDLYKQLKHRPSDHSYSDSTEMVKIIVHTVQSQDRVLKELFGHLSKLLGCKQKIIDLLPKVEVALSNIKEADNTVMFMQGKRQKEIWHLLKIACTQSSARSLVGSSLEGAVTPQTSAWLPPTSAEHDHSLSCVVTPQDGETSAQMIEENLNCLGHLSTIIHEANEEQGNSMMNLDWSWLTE
Briefly: In vitro kinase activity (Millipore KinaseProfiler): IKKα. The test is classed as biochemical. The note with it: no head or unit printed. How it is done:
as §1, §2

Another test concerns hexokinase. Briefly: Hexokinase activity in whole cell lysates, RCC4. It counts as cell-based, human. The settings on record: 5 μM. The procedure: as §1
We then examined whether this decrease in glycolysis in response to compound 47 was due to a decrease in glucose uptake or whether compound 47 inhibited a particular glycolytic enzyme. To test this, we measured glucose uptake using 2-deoxy-D-[^3H] glucose, a non-hydrolyzable, radioactive glucose analog, following two days of treatment with compound 47. […] RCC4/VHL cells had lower baseline levels of glucose uptake compared to RCC4 cells and were unaffected by treatment with compound 47. […]

The test system of another test is RCC4/VHL. As to the kind of experiment: Lactate production (glycolysis), RCC4/VHL. It counts as cell-based, human. The settings on record: 5 μM. How it is done: as §1
As the central mediator of oxygen homeostasis, HIF plays an important role in the cellular adaptation to low oxygen conditions through the regulation of genes involved in metabolism and energy production. Inactivation of VHL results in an increase in the half-life of HIF protein. […] To examine whether this compound alters the rate of glycolysis in VHL-deficient cells, we measured the intracellular production of lactate, which is rapidly converted from pyruvate, the end-product of glycolysis. […]

Another test deals with T3, mTOR (Homo sapiens, UniProt P42345).
T3 construct: purchased Millipore (KinaseProfiler service)
Briefly: In vitro kinase activity (Millipore KinaseProfiler): mTOR. It counts as biochemical. The note with it: no head or unit printed. The procedure: as §1, §2

Another test concerns the target T4, DAPK1 (Homo sapiens, UniProt P53355).
T4 construct: purchased Millipore (KinaseProfiler service)
As to the kind of experiment: In vitro kinase activity (Millipore KinaseProfiler): DAPK1. The test is classed as biochemical. The settings on record: no head or unit printed. The procedure: as §1, §2

The subject of another test is PI3K. Briefly: In vitro kinase activity (Millipore KinaseProfiler): PI3K. The note with it: no head or unit printed. The test is classed as biochemical. The procedure:
as §1, §2

The test system of another test is RCC4. As to the kind of experiment: Clonogenic survival, RCC4. The test is classed as cell-based, human. The procedure: Three hundred cells were plated into 60-mm tissue culture dishes in DMEM. The next day, cells were treated with vehicle or drug and were further incubated for an additional 10 days. […] The stain was removed and plates were washed in deionized water. Colonies were quantified. All conditions were measured in triplicate and all experiments were performed in triplicate.
For 2,3-bis[2-methoxy-4-nitro-5-sulfophenyl]-2H-tetrazolium-5-carboxanilide (XTT) assays, five thousand cells were plated in 96-well plates. The next day, vehicle (DMSO) or drug was added by serial dilution. […] Metabolism of XTT was quantified by measuring the absorbance at 450 nm. IC50s were calculated using linear interpolation. For clonogenic survival assays, three hundred cells were plated per 60 mm tissue culture dish. The cells were allowed to attach overnight and then treated with vehicle or drug for […]. […] All conditions were measured in triplicate and each experiment was done in duplicate or triplicate. To determine necrosis, cells were treated with drug for a given time point. Media and cells were collected, centrifugated, and resuspended in 0.4% trypan blue (Invitrogen). Live and dead cells were counted on a hematocytometer.

For another test, the target named is T5, PAK2 (Homo sapiens, UniProt Q13177).
T5 construct: purchased Millipore (KinaseProfiler service)
T5 sequence (Q13177 whole entry, species assumed): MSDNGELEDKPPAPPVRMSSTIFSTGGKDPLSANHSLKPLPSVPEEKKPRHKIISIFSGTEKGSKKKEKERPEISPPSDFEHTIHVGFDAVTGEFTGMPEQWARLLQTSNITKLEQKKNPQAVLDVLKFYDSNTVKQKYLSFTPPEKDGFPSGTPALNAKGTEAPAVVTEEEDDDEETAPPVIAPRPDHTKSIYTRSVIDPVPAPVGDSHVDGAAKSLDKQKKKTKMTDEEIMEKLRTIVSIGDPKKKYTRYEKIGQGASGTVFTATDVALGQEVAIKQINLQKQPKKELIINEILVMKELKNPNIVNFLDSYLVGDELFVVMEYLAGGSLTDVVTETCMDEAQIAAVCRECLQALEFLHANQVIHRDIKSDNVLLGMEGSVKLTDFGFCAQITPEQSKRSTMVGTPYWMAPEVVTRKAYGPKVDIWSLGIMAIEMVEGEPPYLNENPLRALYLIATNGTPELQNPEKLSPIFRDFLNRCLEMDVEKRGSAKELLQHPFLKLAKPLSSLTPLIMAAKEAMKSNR
Briefly: In vitro kinase activity (Millipore KinaseProfiler): PAK2. The test is classed as biochemical. The note with it: no head or unit printed. The procedure:
as §1, §2

The target of a further test is T6, Plk3 (Homo sapiens, UniProt Q9H4B4).
T6 construct: purchased Millipore (KinaseProfiler service)
T6 sequence (Q9H4B4 whole entry, species assumed): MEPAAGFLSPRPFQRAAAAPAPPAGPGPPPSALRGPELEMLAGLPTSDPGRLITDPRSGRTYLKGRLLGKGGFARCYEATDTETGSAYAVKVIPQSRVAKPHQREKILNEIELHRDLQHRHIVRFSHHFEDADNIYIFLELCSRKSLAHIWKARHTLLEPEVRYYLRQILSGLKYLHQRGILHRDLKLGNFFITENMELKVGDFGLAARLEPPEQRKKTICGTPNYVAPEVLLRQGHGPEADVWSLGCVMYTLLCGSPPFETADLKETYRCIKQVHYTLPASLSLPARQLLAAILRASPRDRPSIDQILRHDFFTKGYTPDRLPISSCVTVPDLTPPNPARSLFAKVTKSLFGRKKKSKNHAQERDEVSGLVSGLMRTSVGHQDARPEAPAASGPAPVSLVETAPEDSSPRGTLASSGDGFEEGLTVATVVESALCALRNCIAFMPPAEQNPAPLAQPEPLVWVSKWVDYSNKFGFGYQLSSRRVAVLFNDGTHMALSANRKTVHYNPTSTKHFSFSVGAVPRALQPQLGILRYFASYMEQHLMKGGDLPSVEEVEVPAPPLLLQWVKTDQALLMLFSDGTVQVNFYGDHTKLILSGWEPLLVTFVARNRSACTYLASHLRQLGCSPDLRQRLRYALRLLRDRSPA
As to the kind of experiment: In vitro kinase activity (Millipore KinaseProfiler): Plk3. The test is classed as biochemical. The note with it: no head or unit printed. How it is done:
as §1, §2

The test system of the next test is ACHN shVHL. Briefly: Clonogenic survival, ACHN with shRNA to VHL. The settings on record: FIG. 2E. It counts as cell-based, human.
The target in the next test is T7, Abl (Homo sapiens, UniProt P00519).
T7 construct: purchased Millipore (KinaseProfiler service)
T7 sequence (P00519 whole entry, species assumed): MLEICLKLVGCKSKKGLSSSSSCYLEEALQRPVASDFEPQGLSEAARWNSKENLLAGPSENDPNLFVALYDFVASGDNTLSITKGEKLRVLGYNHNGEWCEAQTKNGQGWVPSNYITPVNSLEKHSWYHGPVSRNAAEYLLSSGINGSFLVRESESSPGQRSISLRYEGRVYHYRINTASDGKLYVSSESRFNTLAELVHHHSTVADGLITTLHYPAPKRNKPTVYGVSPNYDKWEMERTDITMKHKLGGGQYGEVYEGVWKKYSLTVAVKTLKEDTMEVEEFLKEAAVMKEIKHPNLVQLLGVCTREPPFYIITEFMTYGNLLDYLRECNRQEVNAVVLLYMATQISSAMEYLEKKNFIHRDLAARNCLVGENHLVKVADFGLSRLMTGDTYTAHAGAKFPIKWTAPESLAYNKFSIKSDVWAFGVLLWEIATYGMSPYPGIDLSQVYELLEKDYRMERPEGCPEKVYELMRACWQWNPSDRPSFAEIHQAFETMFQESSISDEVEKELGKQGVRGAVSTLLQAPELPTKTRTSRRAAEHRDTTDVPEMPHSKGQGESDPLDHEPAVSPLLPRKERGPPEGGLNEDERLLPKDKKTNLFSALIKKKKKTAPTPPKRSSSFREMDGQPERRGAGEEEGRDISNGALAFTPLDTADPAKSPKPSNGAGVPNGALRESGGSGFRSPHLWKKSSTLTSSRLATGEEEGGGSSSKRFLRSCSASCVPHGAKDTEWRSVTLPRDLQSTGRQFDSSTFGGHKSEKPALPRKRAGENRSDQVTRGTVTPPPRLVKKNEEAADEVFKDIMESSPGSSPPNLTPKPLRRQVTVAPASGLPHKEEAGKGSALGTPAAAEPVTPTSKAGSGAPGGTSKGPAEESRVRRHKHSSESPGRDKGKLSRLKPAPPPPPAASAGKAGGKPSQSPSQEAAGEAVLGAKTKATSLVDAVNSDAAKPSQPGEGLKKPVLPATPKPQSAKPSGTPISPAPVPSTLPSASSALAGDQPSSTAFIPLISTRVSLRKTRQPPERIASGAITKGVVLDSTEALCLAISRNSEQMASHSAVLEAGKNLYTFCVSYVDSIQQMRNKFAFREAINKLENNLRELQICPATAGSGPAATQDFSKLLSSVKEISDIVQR
Briefly: In vitro kinase activity (Millipore KinaseProfiler): Abl. The test is classed as biochemical. The settings on record: no head or unit printed. How it is done: as §1, §2

T1 sequence (Q02763 23-1124): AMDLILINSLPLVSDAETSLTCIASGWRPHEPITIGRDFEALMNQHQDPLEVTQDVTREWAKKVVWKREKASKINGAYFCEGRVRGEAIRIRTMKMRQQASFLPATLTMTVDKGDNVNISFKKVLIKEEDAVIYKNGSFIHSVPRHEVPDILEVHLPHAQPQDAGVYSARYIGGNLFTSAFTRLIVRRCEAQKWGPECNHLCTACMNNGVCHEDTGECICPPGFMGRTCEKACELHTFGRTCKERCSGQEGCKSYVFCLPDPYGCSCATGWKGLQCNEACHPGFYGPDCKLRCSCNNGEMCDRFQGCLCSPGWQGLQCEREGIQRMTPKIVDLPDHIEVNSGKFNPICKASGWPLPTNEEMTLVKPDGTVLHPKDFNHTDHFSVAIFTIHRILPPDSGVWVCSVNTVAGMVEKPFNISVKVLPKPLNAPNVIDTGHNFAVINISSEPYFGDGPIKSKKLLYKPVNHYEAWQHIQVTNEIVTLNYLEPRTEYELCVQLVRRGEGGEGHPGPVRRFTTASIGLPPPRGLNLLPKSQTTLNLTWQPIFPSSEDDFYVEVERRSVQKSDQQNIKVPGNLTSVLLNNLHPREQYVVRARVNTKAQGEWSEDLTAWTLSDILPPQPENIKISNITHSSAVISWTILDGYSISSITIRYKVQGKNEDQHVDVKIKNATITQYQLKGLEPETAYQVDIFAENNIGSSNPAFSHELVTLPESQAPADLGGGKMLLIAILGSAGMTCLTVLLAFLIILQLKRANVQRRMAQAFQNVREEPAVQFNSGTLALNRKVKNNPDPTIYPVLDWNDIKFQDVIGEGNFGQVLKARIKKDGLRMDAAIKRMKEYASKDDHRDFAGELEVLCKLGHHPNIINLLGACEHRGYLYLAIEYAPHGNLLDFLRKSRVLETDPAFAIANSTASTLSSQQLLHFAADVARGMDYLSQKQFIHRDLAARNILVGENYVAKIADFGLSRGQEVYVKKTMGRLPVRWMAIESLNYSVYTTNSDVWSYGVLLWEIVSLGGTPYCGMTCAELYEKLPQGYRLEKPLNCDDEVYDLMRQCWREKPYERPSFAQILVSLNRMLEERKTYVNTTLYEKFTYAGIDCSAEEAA

Take `CC(C)(C)c1ccc(S(=O)(=O)NCc2ccc(C(=O)Nc3cccnc3)cc2)cc1` [Example 38, 4-((4-tert-Butylphenylsulfonamido)methyl)-N-(pyridin-3-yl)benzamide]: the Tie2 kinase activity at Tie2 amounted to 111%. Further, the IKKα kinase activity at IKKα is 102. In addition, the “hexokinase activity in RCC4” value in the test on hexokinase was “inhibited by compound 47 only after three days of treatment”. Besides, the “effect on glycolysis (lactate) in cells with wild-type VHL” value in the test on RCC4/VHL is reported as “did not affect glycolysis”. In addition, the mTOR kinase activity at mTOR stood at 101. The compound also showed a DAPK1 kinase activity at DAPK1 of 92%. The compound also gave a PI3K kinase activity in the test with PI3K of 97. Further, the “reversibility of induced cell death” value with RCC4 (5 μM, media replaced after indicated time, total 10 days) was “irreversible after three days”. Besides, in the test on RCC4 (RCC4 (VHL-deficient), 5 μM, 10 days), the “clonogenic survival of RCC4” value is recorded as “specifically toxic to RCC4 cells”. For the same compound, in the test with RCC4 (compound 5 μM, FIG. 2D), the “RCC4 cells killed following treatment” value is recorded as “Approximately 80%”. At PAK2, the PAK2 kinase activity is 97%. In addition, the Plk3 kinase activity on Plk3 is 104. The “sensitivity of ACHN cells with VHL silenced by shRNA (clonogenic survival)” value with ACHN shVHL is on record as “sensitive”. In addition, the Abl kinase activity on Abl is listed as 108.
